Results taken from patent publication US20100087498A1, “USE OF BIOTIN TO PREVENT PHOTOAGING” (priority 2007, published 2010).

System: MMP-1 expression in primary human dermal fibroblasts
Experiment: Inhibition of UV-A induced expression of matrix metalloproteinase-1 (MMP-1 RNA, real time PCR) in skin fibroblasts
Assay type: cell-based
Conditions: 30 J/cm^2 UVA1; for MMP-1 expression relative to UV-A only treated cells / reduction of UV-A induced MMP-1 expression: primary human dermal fibroblasts; for MMP-1 expression relative to UV-A only treated cells: 48 h preincubation, 24 hrs after irradiation; for reduction of UV-A induced MMP-1 expression: concentrations as in Table 1
Experimental: Primary human dermal fibroblasts were cultured in EMEM without glutamine (Earle's Minimum Essential Medium), supplemented with antibiotics/antimycotics, 2 mM L-glutamine and 7.5% fetal calf serum at 37° C./5% CO2 and grown to 100% confluency. Forty-eight hours prior to irradiation the cells were preincubated with the desired substances in EMEM (with AB/AM, L-Glutamine and 2% FCS. After 24 hours the medium was replaced by fresh medium with substances (freshly prepared). For irradiation, the medium was removed and after 6 wash steps with phosphate-buffered saline (PBS) replaced by phosphate-buffered saline (PBS). The plate was then exposed to 30 J/cm^2 UVA1. The UVA1 output was approximately 150 mW/cm^2. After irradiation the phosphate-buffered saline in the cell microplate was exchanged against culture medium (+7.5% FCS) with the substances (fresh prepared) and the cells were incubated in a CO2-incubator for further 24 hrs (MMP-1 determination). The culture medium was removed, the cells were rinsed with phosphate-buffered saline and the whole plate was frozen in liquid nitrogen. Total RNA was isolated using RNeasy Total RNA Kits (Qiagen, Hilden; Germany). The RNA concentration was determined via photometric measurement at 260/280. Aliquots of total RNA (75 ng) were applied for cDNA-Synthesis using Superscript™III First-Strand synthesis system for RT-PCR. Two samples for each compound were analyzed. The PCR reactions were carried out on an Opticon 1 (MJ Research, Waltham, Mass., USA) using SYBR Green® PCR Master Mix (Applied Biosystems, Darmstadt, Germany). For comparison of relative expression in real time PCR control cells and treated cells the 2 ^(-delta delta C(T)) method was used.

[1] = EGCG 9 μmol/L, Biotin 0.03 μmol/L

| Compound | inhibition at 0.03 µM (Homo sapiens, Fibroblast, light or radiation study, inhibition of UV-A induced MMP-1 expression, EGCG 9 μmol/L, Biotin 0.03 μmol/L) | MMP-1 expression relative to UV-A only treated cells [1] | reduction of UV-A induced MMP-1 expression | % inhibition (inhibition of UV-A induced MMP-1 expression, EGCG 9 μmol/L, Biotin 0.03 μmol/L) |
| --- | --- | --- | --- | --- |
| O=C(O)CCCC[C@@H]1SC[C@@H]2NC(=O)N[C@@H]21 [Biotin] | 66% | 35% | 66% | – |
| (-)-epigallocatechin gallate [EGCG] | – | 87% | 13% | 13% |
